17 compounds from patent publication US20260159512A1, “BCAT2 INHIBITORS” (AGIOS PHARMACEUTICALS, INC., priority 2021, published 2026) can be followed below.

What all share (conditions): average where tested multiple times
The target in assay [1] is T1, BCAT2 (Homo sapiens, UniProt O15382).
T1 sequence (O15382 28-392): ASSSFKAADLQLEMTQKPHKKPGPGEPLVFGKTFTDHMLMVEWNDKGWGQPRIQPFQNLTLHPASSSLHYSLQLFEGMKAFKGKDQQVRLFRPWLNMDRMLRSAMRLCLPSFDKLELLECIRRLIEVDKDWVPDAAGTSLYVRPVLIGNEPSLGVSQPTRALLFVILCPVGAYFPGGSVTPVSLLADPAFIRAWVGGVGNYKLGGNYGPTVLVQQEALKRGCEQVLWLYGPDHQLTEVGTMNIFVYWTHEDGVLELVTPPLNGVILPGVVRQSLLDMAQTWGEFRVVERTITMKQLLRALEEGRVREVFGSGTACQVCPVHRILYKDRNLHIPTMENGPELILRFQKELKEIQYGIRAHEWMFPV
Nature of the assay: BCAT2 in vitro cell inhibition using engineered A549 cells (KMV cell assay, 13C6-KMV by LC-MS/MS). Set-up: The result was an engineered A549 cell line that expressed endogenous BCAT2; endogenous in cells; host or cells: A549 cells with MUT and BCAT1 knocked out by CRISPR/CAS9; key to BCAT2 Cell Inhibition: A: less than or equal to 0.100 μM; B: greater than 0.100 and less than or equal to 0.500 μM; C: greater than 0.500 and less than or equal to 1.000 μM; d: greater than 1.000 μM; E: no fit. The assay is classed as cell-based.

The target in assay [2] is T2, hBCAT1 (Homo sapiens, UniProt P54687).
T2 sequence (P54687 1-386): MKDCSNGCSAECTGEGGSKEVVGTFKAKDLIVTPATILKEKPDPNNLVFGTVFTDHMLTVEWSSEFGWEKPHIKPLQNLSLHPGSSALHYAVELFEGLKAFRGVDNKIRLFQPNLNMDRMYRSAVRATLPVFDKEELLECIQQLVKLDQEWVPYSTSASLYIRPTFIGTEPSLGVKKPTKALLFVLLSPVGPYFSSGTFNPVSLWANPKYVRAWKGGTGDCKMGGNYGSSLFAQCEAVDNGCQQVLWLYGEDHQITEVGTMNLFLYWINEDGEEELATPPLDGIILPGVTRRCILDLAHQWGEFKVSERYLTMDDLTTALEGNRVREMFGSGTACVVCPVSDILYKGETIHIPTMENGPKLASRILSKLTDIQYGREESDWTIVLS
Nature of the assay: BCAT1 in vitro enzyme inhibition assay (resazurin/diaphorase-coupled fluorescence). The assay is classed as biochemical. The essentials: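 Ten-point, 3-fold compound series (top final 100 μM, delivered 1:50 from 50× DMSO stocks) tested against hBCAT1. Inhibition detected via diaphorase-coupled resazurin fluorescence, duplicate wells, with values from repeated runs averaged.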
A general note: Alamar Blue is a resazurin reagent that responds to reducing activity.

For assay [3], the target named is T1, BCAT2. The assay is described as follows: BCAT2 in vitro enzyme inhibition assay (resazurin/diaphorase-coupled fluorescence). The assay is classed as biochemical. An outline of the steps: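 Coupled fluorescence readout: glutamate formed from L-leucine/α-ketoglutarate transamination drives GDH/NAD/diaphorase reduction of resazurin (Ex 540/Em 590). Human BCAT2 was first exposed 1 h at room temperature to compound, top final 100 μM in 3-fold, 10-point series; substrate reaction ran 1 h before SDS quench, in technical duplicate with DMSO max and enzyme-free min controls.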

pIC50: −log10 of the molar value. Where “and” joins values, the source holds several entries; their conditions need not be identical. Equal entries are not always repeated.

Take `O=C(N[C@H]1CCC[C@@H](n2c(-c3ccccc3F)nc3cnc(-n4nccn4)cc32)C1)c1ncc(C(F)F)s1` [Example 25, 5-(difluoromethyl)-N-((1S,3R)-3-(2-(2-fluorophenyl)-6-(2H-1,2,3-triazol-2-yl)-1H-imidazo[4,5-c]pyridin-1-yl)cyclohexyl)thiazole-2-carboxamide]: the pIC50 (commonly the IC50 on a negative log10 scale, so that one unit is a factor of ten) was ≥ 7.00 in assay [1], > 6.30 in assay [2] and ≥ 7.00 in assay [3].
As for `O=C(N[C@H]1CCC[C@@H](n2c(-c3ccccn3)nc3cnc(-n4cncn4)cc32)C1)c1ncc(C(F)F)s1` [Example 26, 5-(difluoromethyl)-N-((1S,3R)-3-(2-(pyridin-2-yl)-6-(1H-1,2,4-triazol-1-yl)-1H-imidazo[4,5-c]pyridin-1-yl)cyclohexyl)thiazole-2-carboxamide], the “BCAT2 Cell Inhibition” value in assay [1] is recorded as “E”. Moreover, the values for the negative logarithm of the IC50 (pIC50) in assay [2] and in assay [3] were < 5.30 and 6.30 to 7.00, respectively.
Take `O=C(N[C@H]1CCC[C@@H](n2c(-c3ncccc3F)nc3cnc(-n4cncn4)cc32)C1)c1ncc(C(F)F)s1` [Example 28, 5-(difluoromethyl)-N-((1S,3R)-3-(2-(3-fluoropyridin-2-yl)-6-(1H-1,2,4-triazol-1-yl)-1H-imidazo[4,5-c]pyridin-1-yl)cyclohexyl)thiazole-2-carboxamide]: the pIC50 in assay [1] is 6.00 to 6.30; in assay [2], 5.30 to 6.00; in assay [3], ≥ 7.00.
Consider `C#Cc1cnc(C(=O)N[C@H]2CCC[C@@H](n3c(-c4ncccc4F)nc4cnc(-n5cncn5)cc43)C2)s1` [Example 29, 5-ethynyl-N-((1S,3R)-3-(2-(3-fluoropyridin-2-yl)-6-(1H-1,2,4-triazol-1-yl)-1H-imidazo[4,5-c]pyridin-1-yl)cyclohexyl)thiazole-2-carboxamide], for which the pIC50 is 6.30 to 7.00 in assay [1], 6.00 to 6.30 in assay [2] and ≥ 7.00 in assay [3].
Consider `O=C(N[C@H]1CCC[C@@H](n2c(-c3ccccn3)nc3cnc(-n4cccn4)cc32)C1)c1ccc(Br)s1` [Example 30, N-((1S,3R)-3-(6-(1H-pyrazol-1-yl)-2-(pyridin-2-yl)-1H-imidazo[4,5-c]pyridin-1-yl)cyclohexyl)-5-bromothiophene-2-carboxamide], for which the pIC50 is 6.00 to 6.30 in assay [1], 5.30 to 6.00 in assay [2] and ≥ 7.00 in assay [3].
The like results for `Cc1coc(-c2cc3c(cn2)nc(-c2ccccn2)n3[C@@H]2CCC[C@H](NC(=O)c3ccc(Br)s3)C2)n1` [Example 31, 5-bromo-N-((1S,3R)-3-(6-(4-methyloxazol-2-yl)-2-(pyridin-2-yl)-1H-imidazo[4,5-c]pyridin-1-yl)cyclohexyl)thiophene-2-carboxamide] were, in that order, ≥ 7.00, > 6.30 and ≥ 7.00.
The like results for `O=C(N[C@H]1CCC[C@@H](n2c(-c3ccccn3)nc3cnc(-n4ccnn4)cc32)C1)c1ncc(Br)s1` [Example 32, 5-bromo-N-((1S,3R)-3-(2-(pyridin-2-yl)-6-(1H-1,2,3-triazol-1-yl)-1H-imidazo[4,5-c]pyridin-1-yl)cyclohexyl)thiazole-2-carboxamide] were, in that order, < 6.00, 5.30 to 6.00 and 6.30 to 7.00.
As for `C#Cc1cnc(C(=O)N[C@H]2CCC[C@@H](n3c(-c4ccccn4)nc4cnc(-n5ccnn5)cc43)C2)s1` [Example 33, 5-ethynyl-N-((1S,3R)-3-(2-(pyridin-2-yl)-6-(1H-1,2,3-triazol-1-yl)-1H-imidazo[4,5-c]pyridin-1-yl)cyclohexyl)thiazole-2-carboxamide], the pIC50 was 6.00 to 6.30 in assay [1], 5.30 to 6.00 in assay [2] and ≥ 7.00 in assay [3].
Turning to `O=C(N[C@H]1CCC[C@@H](n2c(-c3ccccn3)nc3cnc(-n4ccnn4)cc32)C1)c1ncc(C(F)F)s1` [Example 34, 5-(difluoromethyl)-N-((1S,3R)-3-(2-(pyridin-2-yl)-6-(1H-1,2,3-triazol-1-yl)-1H-imidazo[4,5-c]pyridin-1-yl)cyclohexyl)thiazole-2-carboxamide], the “BCAT2 Cell Inhibition” value in assay [1] is recorded as “E”. Moreover, the negative-log IC50 (pIC50) in assay [2] is < 5.30; in assay [3], 6.30 to 7.00.
In the case of `O=C(N[C@H]1CCC[C@@H](n2c(-c3ncccc3F)nc3cnc(-n4ccnn4)cc32)C1)c1ncc(Br)s1` [Example 35, 5-bromo-N-((1S,3R)-3-(2-(3-fluoropyridin-2-yl)-6-(1H-1,2,3-triazol-1-yl)-1H-imidazo[4,5-c]pyridin-1-yl)cyclohexyl)thiazole-2-carboxamide], the pIC50 in assay [1] is 6.00 to 6.30; in assay [2] it was 5.30 to 6.00; in assay [3], ≥ 7.00.
As to `C#Cc1cnc(C(=O)N[C@H]2CCC[C@@H](n3c(-c4ncccc4F)nc4cnc(-n5ccnn5)cc43)C2)s1` [Example 36, 5-ethynyl-N-((1S,3R)-3-(2-(3-fluoropyridin-2-yl)-6-(1H-1,2,3-triazol-1-yl)-1H-imidazo[4,5-c]pyridin-1-yl)cyclohexyl)thiazole-2-carboxamide], the pIC50 in assay [1] is 6.30 to 7.00; in assay [2] it was 6.00 to 6.30; in assay [3], ≥ 7.00.
Regarding `O=C(N[C@H]1CCC[C@@H](n2c(-c3ncccc3F)nc3cnc(-n4ccnn4)cc32)C1)c1ncc(C(F)F)s1` [Example 37, 5-(difluoromethyl)-N-((1S,3R)-3-(2-(3-fluoropyridin-2-yl)-6-(1H-1,2,3-triazol-1-yl)-1H-imidazo[4,5-c]pyridin-1-yl)cyclohexyl)thiazole-2-carboxamide], the results for the pIC50 in assay [1], in assay [2] and in assay [3] were < 6.00, 5.30 to 6.00 and 6.30 to 7.00, respectively.
Consider `O=C(N[C@H]1CCC[C@@H](n2c(-c3ccccc3F)nc3cnc(-n4ccnn4)cc32)C1)c1ncc(C(F)F)s1` [Example 38, 5-(difluoromethyl)-N-((1S,3R)-3-(2-(2-fluorophenyl)-6-(1H-1,2,3-triazol-1-yl)-1H-imidazo[4,5-c]pyridin-1-yl)cyclohexyl)thiazole-2-carboxamide], for which the pIC50 was 6.30 to 7.00 in assay [1], 5.30 to 6.00 in assay [2] and ≥ 7.00 in assay [3].
As for `Cc1cnn(-c2cc3c(cn2)nc(-c2ccccn2)n3[C@@H]2CCC[C@H](NC(=O)c3ccc(Br)s3)C2)n1` [Example 39, 5-bromo-N-((1S,3R)-3-(6-(4-methyl-2H-1,2,3-triazol-2-yl)-2-(pyridin-2-yl)-1H-imidazo[4,5-c]pyridin-1-yl)cyclohexyl)thiophene-2-carboxamide], the negative-log IC50 (pIC50) in assay [1] is ≥ 7.00; in assay [2], > 6.30; in assay [3], ≥ 7.00.
With `Cn1ccc(-c2nc3cnc(-n4nccn4)cc3n2[C@@H]2CCC[C@H](NC(=O)c3ncc(C(F)F)s3)C2)n1` [Example 41, 5-(difluoromethyl)-N-((1S,3R)-3-(2-(1-methyl-1H-pyrazol-3-yl)-6-(2H-1,2,3-triazol-2-yl)-1H-imidazo[4,5-c]pyridin-1-yl)cyclohexyl)thiazole-2-carboxamide], the results for the pIC50 in assay [1], in assay [2] and in assay [3] were < 6.00, < 5.30 and 6.30 to 7.00, respectively.
As for `Cn1nccc1-c1nc2cnc(-n3nccn3)cc2n1[C@@H]1CCC[C@H](NC(=O)c2ncc(C(F)F)s2)C1` [Example 43, 5-(difluoromethyl)-N-((1S,3R)-3-(2-(1-methyl-1H-pyrazol-5-yl)-6-(2H-1,2,3-triazol-2-yl)-1H-imidazo[4,5-c]pyridin-1-yl)cyclohexyl)thiazole-2-carboxamide], the negative logarithm of the IC50 (pIC50) in assay [1] was 6.00 to 6.30 and 6.30 to 7.00; in assay [2] it was < 5.30; in assay [3] it was ≥ 7.00.
For the compound `Cn1nccc1-c1nc2cnc(-n3ccnn3)cc2n1[C@@H]1CCC[C@H](NC(=O)c2ncc(C(F)F)s2)C1` [Example 44, 5-(difluoromethyl)-N-((1S,3R)-3-(2-(1-methyl-1H-pyrazol-5-yl)-6-(1H-1,2,3-triazol-1-yl)-1H-imidazo[4,5-c]pyridin-1-yl)cyclohexyl)thiazole-2-carboxamide], the “BCAT2 Cell Inhibition” value in assay [1] is recorded as “E”. For the same compound, the pIC50 in assay [2] was < 5.30; in assay [3] it was < 6.00.
